# Paper PMC2792609, “Effect of methomyl on hepatic mixed function oxidases in rats” (Indian Journal of Pharmacology, 2008)
# Read-outs that look alike come from different tables or passages of the source.
# What was measured:
# red cell ChE = details: methomyl aerosol, male rats, repeated inhalation; cited from earlier work
# Serum cholinesterase = target: T1, Serum cholinesterase (Rattus norvegicus, UniProt Q9JKC1); experiment: Serum cholinesterase activity; type: in vivo; details: for depression of acetyl cholinesterase activity: 3 days
# T1 construct: from tissue; host or cells: rat serum
# Description: (§1) Adult male rats (weighing 200-230 g) were divided into four groups of six animals each. Group 1 received an equivalent amount of saline and served as control. Animals from group 2, 3, and 4 were given methomyl 1, 2, and 4 mg/kg body weight i.p. respectively, between 8: 00 a.m. and 9:00 a.m., for three consecutive days. In the second set of experiments, adult male rats were divided into four groups. Animals from group 2, 3, and 4 were injected with 4 mg/kg body weight methomyl for one, three, and five successive days. The volume injected into the rats of body weight 200 g was 1 ml. […]
# (§2) Alanine aminotransferase and aspartate aminotransferase activity was measured using the Reitman and Frankel[12] method. Alkaline phosphatase activity was measured using Span diagnostic kits.[13] Cholinesterase activity was measured using the kinetic test method of Knedel et al.[14]
# [1] = system: aspartate aminotransferase (SGOT); experiment: Serum aspartate aminotransferase (SGOT) activity; type: in vivo, rat; details: for Increased activity of aspartate aminotransferase: 3 days
# Description: as §1, §2
# Alkaline phosphatase = experiment: Serum alkaline phosphatase activity; type: in vivo, rat; details: for increase in serum alkaline phosphatase activity: 3 days
# Description: as §1, with “ml. In another experiment, adult female rats and old male rats (weighing 350-450 g, 8 months old) were divided into two groups of six animals each.” for “ml.”
# as §2
# Aniline hydroxylase = experiment: Hepatic microsomal aniline hydroxylase activity; type: in vivo, rat; details: for decrease in the activity of aniline hydroxylase / decrease in activity of aniline hydroxylase: vs control
# Description: (§3) Adult male rats (weighing 200-230 g) were divided into four groups of six animals each. Group 1 received an equivalent amount of saline and served as control. Animals from group 2, 3, and 4 were given methomyl 1, 2, and 4 mg/kg body weight i.p. respectively, between 8: 00 a.m. and 9:00 a.m., for three consecutive days. In the second set of experiments, adult male rats were divided into four groups. Animals from group 2, 3, and 4 were injected with 4 mg/kg body weight methomyl for one, three, and five successive days. The volume injected into the rats of body weight 200 g was 1 ml. In another experiment, adult female rats and old male rats (weighing 350-450 g, 8 months old) were divided into two groups of six animals each. Group 2 of each category received methomyl (4 mg/kg body weight, i.p., for three successive days), and group 1 of each category received an equivalent amount of saline and served as the control group.
# (§4) The rats were sacrificed by cervical dislocation, 24 hours after the last dose. Their livers were perfused in situ with ice cold 1.15% KCl containing 0.05 mM EDTA, rapidly excised, blotted dry, weighed, minced and homogenized with two volumes of ice cold 0.25 M sucrose solution, in a Potter-Elvehjem type homogenizer. The homogenate was centrifuged at 10,000 × g for 10 min, in a refrigerated centrifuge (REMI C-24). The microsomes were isolated by the procedure described by of Cinti et al.[4] The microsomal pellet was suspended in phosphate buffer (0.1 M, pH 7.4) and the suspension was used for the microsomal enzyme assays. Microsomal protein content was measured by the Biuret method, using bovine serum albumin as the standard.[5]
# (§5) The microsomal electron transport components (cytochrome P450 and cytochrome b5) were determined using Hitachi UV-Visible double beam recording spectrophotometer, by the procedure of Omura and Sato.[67] Cytochrome c reductase activity was determined using the method recommended by Masters et al.[8] Aminopyrine N-demethylase activity was assayed according to the procedure described by Schenkman et al.[9] Formaldehyde liberated during N-demethylation was estimated by the procedure described by Nash.[10] Aniline hydroxylase assay was performed using the procedure reported by Govindwar and Dalvi.[11]
# Cytochrome c reductase = experiment: Hepatic microsomal cytochrome c reductase activity; type: in vivo, rat
# Description: as §3, §4, §5
# microsomal protein = type: in vivo, rat; details: for decrease in hepatic microsomal protein content: 3 days, vs control
# Description: as §3, §4
# Serum total protein = type: in vivo, rat; details: for decrease in total protein content: 3 days
# Description: as §3
# mixed function oxidases = details: quails; cited from earlier work
# [2] = female rats, 4 mg/kg body weight i.p., for 3 days
# [3] = male rats, 1 mg/kg body weight i.p., for three days
# [4] = male rats, 2 mg/kg body weight i.p., for three days
# [5] = male rats, 4 mg/kg body weight i.p., for three days
# [6] = adult female rats, 4 mg/kg body weight, i.p., three days
# [7] = adult male rats, 1 mg/kg i.p., for 3 days
# [8] = adult male rats, 2 mg/kg i.p., for 3 days
# [9] = adult male rats, 4 mg/kg i.p., for 3 days
# [10] = adult rats, 4 mg/kg i.p., 1 day of treatment
# [11] = adult rats, 4 mg/kg i.p., 3 days of treatment
# [12] = adult rats, 4 mg/kg i.p., 5 days of treatment
# [13] = old male rats, 4 mg/kg body weight, i.p., three days
# [14] = adult male rats, 4 mg/kg i.p., one, three and five days
# T1 sequence (Q9JKC1 24-597): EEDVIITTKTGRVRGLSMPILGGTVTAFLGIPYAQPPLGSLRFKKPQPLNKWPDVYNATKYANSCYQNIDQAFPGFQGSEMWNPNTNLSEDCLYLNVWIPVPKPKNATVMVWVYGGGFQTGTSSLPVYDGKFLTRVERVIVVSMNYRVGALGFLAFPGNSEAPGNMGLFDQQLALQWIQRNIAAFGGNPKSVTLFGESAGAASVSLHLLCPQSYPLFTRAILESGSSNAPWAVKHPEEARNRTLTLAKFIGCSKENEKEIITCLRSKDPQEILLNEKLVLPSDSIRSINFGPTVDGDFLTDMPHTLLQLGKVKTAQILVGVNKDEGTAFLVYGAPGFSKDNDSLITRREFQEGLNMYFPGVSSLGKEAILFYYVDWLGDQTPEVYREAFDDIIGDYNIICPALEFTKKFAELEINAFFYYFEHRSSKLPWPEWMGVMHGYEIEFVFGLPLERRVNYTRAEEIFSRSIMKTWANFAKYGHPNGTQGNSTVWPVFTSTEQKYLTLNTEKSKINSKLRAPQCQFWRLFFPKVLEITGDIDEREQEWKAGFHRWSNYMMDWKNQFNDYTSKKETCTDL
smiles,measurement,setting,value
"CNC(=O)ON=C(C)SC [methomyl, S-methyl-N-(methyl carbomyl)-thioacetimidate]",effect on red cell ChE,red cell ChE,no cumulative effect
same,Serum cholinesterase,Serum cholinesterase; [2],844 u/l
same,depression of acetyl cholinesterase activity,"Serum cholinesterase; female rats, 4 mg/kg i.p.",66%
same,Serum cholinesterase,Serum cholinesterase; [3],1120 u/l
same,depression of acetyl cholinesterase activity,"Serum cholinesterase; male rats, 1 mg/kg i.p.",15%
same,Serum cholinesterase,Serum cholinesterase; [4],949 u/l
same,depression of acetyl cholinesterase activity,"Serum cholinesterase; male rats, 2 mg/kg i.p.",28%
same,Serum cholinesterase,Serum cholinesterase; [5],848 u/l
same,depression of acetyl cholinesterase activity,"Serum cholinesterase; male rats, 4 mg/kg i.p.",35%
same,SGOT,[1]; [2],51.0 u/l
same,Increased activity of aspartate aminotransferase,"[1]; female rats, 4 mg/kg i.p.",39%
same,SGOT,[1]; [3],35.7 u/l
same,SGOT,[1]; [4],37.9 u/l
same,Increased activity of aspartate aminotransferase,"[1]; male rats, 2 mg/kg i.p.",9%
same,SGOT,[1]; [5],40.9 u/l
same,Increased activity of aspartate aminotransferase,"[1]; male rats, 4 mg/kg i.p.",8%
same,Alkaline phosphatase,"Alkaline phosphatase; female rats, 1 mg/kg body weight i.p., for 3 days",19.0 KA units
same,increase in serum alkaline phosphatase activity,"Alkaline phosphatase; female rats, 1 mg/kg i.p.",33%
same,Alkaline phosphatase,"Alkaline phosphatase; female rats, 2 mg/kg body weight i.p., for 3 days",23.0 KA units
same,increase in serum alkaline phosphatase activity,"Alkaline phosphatase; female rats, 2 mg/kg i.p.",61%
same,Alkaline phosphatase,Alkaline phosphatase; [2],26.7 KA units
same,increase in serum alkaline phosphatase activity,"Alkaline phosphatase; female rats, 4 mg/kg i.p.",87%
same,Alkaline phosphatase,Alkaline phosphatase; [3],23.4 KA units
same,increase in serum alkaline phosphatase activity,"Alkaline phosphatase; male rats, 1 mg/kg i.p.",14%
same,Alkaline phosphatase,Alkaline phosphatase; [4],26.4 KA units
same,increase in serum alkaline phosphatase activity,"Alkaline phosphatase; male rats, 2 mg/kg i.p.",29%
same,Alkaline phosphatase,Alkaline phosphatase; [5],28.6 KA units
same,increase in serum alkaline phosphatase activity,"Alkaline phosphatase; male rats, 4 mg/kg i.p.",39%
same,decrease in the activity of aniline hydroxylase,"Aniline hydroxylase; adult female rat, 4 mg/kg i.p., three days",43%
same,Aniline hydroxylase,Aniline hydroxylase; [6],0.45 nmole of p-aminophenol formed/min/mg/microsomal protein
same,Aniline hydroxylase,Aniline hydroxylase; [7],1.35 nmole of p-aminophenol formed/min/mg microsomalprotein
same,Aniline hydroxylase,Aniline hydroxylase; [8],1.17 nmole of p-aminophenol formed/min/mg microsomalprotein
same,decrease in the activity of aniline hydroxylase,"Aniline hydroxylase; adult male rats, 4 mg/kg i.p., 3 days",27%
same,decrease in activity of aniline hydroxylase,"Aniline hydroxylase; adult male rats, 4 mg/kg i.p., five days",17%
same,Aniline hydroxylase,Aniline hydroxylase; [9],0.80 nmole of p-aminophenol formed/min/mg microsomalprotein
same,decrease in activity of aniline hydroxylase,"Aniline hydroxylase; adult male rats, 4 mg/kg i.p., one day",47%
same,decrease in activity of aniline hydroxylase,"Aniline hydroxylase; adult male rats, 4 mg/kg i.p., three days",71%
same,Aniline hydroxylase,Aniline hydroxylase; [10],0.60 nmole of p-aminophenol formed/min/mg/microsomal protein
same,Aniline hydroxylase,Aniline hydroxylase; [11],0.33 nmole of p-aminophenol formed/min/mg/microsomal protein
same,Aniline hydroxylase,Aniline hydroxylase; [12],0.93 nmole of p-aminophenol formed/min/mg/microsomal protein
same,Aniline hydroxylase,Aniline hydroxylase; [13],1.80 nmole of p-aminophenol formed/min/mg/microsomal protein
same,decrease in the activity of cytochrome c reductase,"Cytochrome c reductase; adult female rat, 4 mg/kg i.p., three days, vs control",42%
same,Cytochrome c reductase,Cytochrome c reductase; [6],23.07 nmole of cytochrome c reduced/min/mg microsomal protein
same,Cytochrome c reductase,Cytochrome c reductase; [7],35.73 nmole of cytochrome c reduced/min/mg microsomal protein
same,Cytochrome c reductase,Cytochrome c reductase; [8],32.80 nmole of cytochrome c reduced/min/mg microsomal protein
same,increase in cytochrome c reductase activity,"Cytochrome c reductase; adult male rats, 4 mg/kg i.p., 3 days, vs control",14%
same,Cytochrome c reductase,Cytochrome c reductase; [9],36.93 nmole of cytochrome c reduced/min/mg microsomal protein
same,change in the activity of cytochrome c reductase,Cytochrome c reductase; [14],No significant change
same,Cytochrome c reductase,Cytochrome c reductase; [10],31.3 nmole of cytochrome c reduced/min/mg microsomal protein
same,Cytochrome c reductase,Cytochrome c reductase; [11],26.7 nmole of cytochrome c reduced/min/mg microsomal protein
same,Cytochrome c reductase,Cytochrome c reductase; [12],24.2 nmole of cytochrome c reduced/min/mg microsomal protein
same,decrease in cytochrome c reductase,"Cytochrome c reductase; old male rat, 4 mg/kg i.p., three days, vs control",7%
same,Cytochrome c reductase,Cytochrome c reductase; [13],33.30 nmole of cytochrome c reduced/min/mg microsomal protein
same,Microsomal protein,microsomal protein; [6],10.90 mg/g liver
same,decrease in hepatic microsomal protein content,"microsomal protein; adult male rats, 1 mg/kg i.p.",28%
same,Microsomal protein,microsomal protein; [7],13.53 mg/g liver
same,decrease in hepatic microsomal protein content,"microsomal protein; adult male rats, 2 mg/kg i.p.",31%
same,Microsomal protein,microsomal protein; [8],12.83 mg/g liver
same,decrease in hepatic microsomal protein content,"microsomal protein; adult male rats, 4 mg/kg i.p.",19%
same,Microsomal protein,microsomal protein; [9],15.10 mg/g liver
same,change in microsomal protein,microsomal protein; [14],No significant change
same,Microsomal protein,microsomal protein; [10],15.77 mg/g liver
same,Microsomal protein,microsomal protein; [11],16.00 mg/g liver
same,Microsomal protein,microsomal protein; [12],12.20 mg/g liver
same,Microsomal protein,microsomal protein; [13],18.80 mg/g liver
same,Serum total protein,Serum total protein; [2],1.70 g/dL
same,decrease in total protein content,"Serum total protein; female rats, 4 mg/kg i.p.",23%
same,Serum total protein,Serum total protein; [3],2.02 g/dL
same,decrease in total protein content,"Serum total protein; male rats, 1 mg/kg i.p.",13%
same,Serum total protein,Serum total protein; [4],1.80 g/dL
same,decrease in total protein content,"Serum total protein; male rats, 2 mg/kg i.p.",22%
same,Serum total protein,Serum total protein; [5],1.60 g/dL
same,decrease in total protein content,"Serum total protein; male rats, 4 mg/kg i.p.",30%
same,activity of mixed function oxidases,mixed function oxidases,inhibited
